Data on 51 compounds can be found in PubChem BioAssay AID1996.

Structures are written as SMILES. In brackets after ≈: the same amount, converted by molar mass.

For this data set the following is noted: buffer; pH 7.4; 200.0 µM.
Usually kinetic solubility stands for solubility judged after dilution from a stock solution rather than from solid. `CC(C)(C)c1ccc(S(=O)(=O)N2CCNC(=O)C2)cc1` had a kinetic solubility of 42 µg/mL (≈ 142 µM). To `CC1CCCCC1NC(=O)Cn1cnc2c1c(=O)n(C)c(=O)n2C` (stereo unspecified) belongs more than 50 µg/mL; to `O=C(CSc1ncccn1)NCc1cccc(Cl)c1`, more than 44.1 µg/mL; to `CCN(CC)c1ccc(C(=S)NC2CCCCC2)cc1`, 2 µg/mL (≈ 6.89 µM). To `CC(C)NC(=O)c1sc2c(c1C(=O)Nc1cccnc1)CCCC2` belongs 6.4 µg/mL (≈ 18.6 µM). With `Nc1ccc(-c2nc3cc(N)ccc3n2CCO)cc1` the figure was more than 40.2 µg/mL.

Regarding `CC(N=C1NS(=O)(=O)c2ccccc21)C(=O)NCc1ccc(F)cc1` (stereo unspecified), the solubility (kinetic) is more than 54.2 µg/mL.

`CCCCNC(=S)N1CCn2cccc2C1c1ccc(F)cc1` (stereo unspecified) gave a kinetic solubility of 10.3 µg/mL (≈ 31.1 µM). Take `COc1cccc(OC)c1C(=O)OCC(=O)N(C)c1ccccc1`: the solubility (kinetic) was determined as 43 µg/mL (≈ 131 µM).

The compound `CCOc1ncccc1C(=O)OC(C)C(=O)Nc1ccc(CC)cc1` (stereo unspecified) returned a kinetic solubility of 7.1 µg/mL (≈ 20.7 µM).

`CC(=O)Nc1ccc(-c2csc(Nc3ccccn3)n2)cc1` yielded a kinetic solubility of 0.5 µg/mL (≈ 1.61 µM).

`O=C(NC(Cc1ccccc1)C(=O)O)c1cccnc1Cl` (stereo unspecified): the kinetic solubility is 35 µg/mL (≈ 115 µM). In turn, `Cc1ccnc(NC(=O)COc2ccc(Cl)cc2)n1` yielded a solubility (kinetic) of 9.7 µg/mL (≈ 34.9 µM). This solubility kinetic is about 3.6-fold lower than that of the compound before. `Cl.Nc1ncnc2sc3c(c12)CCNC3`: the solubility (kinetic) was more than 36.4 µg/mL. On to `CCn1c(C)nc2cc(N)ccc21.Cl`, for which the solubility (kinetic) was found to be 34.3 µg/mL.

For `COc1ccc(OC)c(/C=C/c2[nH]c(=O)[nH]c(=O)c2[N+](=O)[O-])c1`, the kinetic solubility was found to be 35.1 µg/mL (≈ 110 µM). To `c1cnc(N2CCN(Cc3ccc4c(c3)OCO4)CC2)cn1` belongs 44.5 µg/mL (≈ 149 µM). To `CC1Cc2ccccc2N1C(=O)C1CC(=O)N(c2ccccc2)C1` (stereo unspecified) belongs 44.9 µg/mL (≈ 140 µM); to `COc1ccc(CCC(=O)Nc2ncc(C)s2)cc1`, 4.1 µg/mL (≈ 14.8 µM); to `O=C(Nc1ccncc1)c1c(Cl)cccc1Cl`, 8.9 µg/mL (≈ 33.3 µM). `Cc1ccc(S(=O)(=O)N(C)CC(=O)OCC(=O)c2ccc3c(c2)NC(=O)CO3)cc1` came in with a kinetic solubility of 25 µg/mL (≈ 57.8 µM). With `COc1ccc2nc(SCC(=O)Nc3ccccc3OC)[nH]c2c1` the figure was 39.6 µg/mL (≈ 115 µM); with `Cc1ccccc1C(=O)OC(C)CN1CCN(C)CC1.Cl` (stereo unspecified), more than 46.9 µg/mL; with `O=C(c1cc2cc([N+](=O)[O-])ccc2oc1=O)N1CCN(C2CCCCC2)CC1`, more than 57.8 µg/mL.

Regarding `N#Cc1c(N)c(C(=O)c2ccccc2)n2ccccc12`, the solubility (kinetic) worked out at 31.4 µg/mL (≈ 120 µM). To `CCc1ccccc1NC(=O)Nc1cnccn1` belongs 6.1 µg/mL (≈ 25.2 µM); to `CCC(=O)NC1(C(F)(F)F)C(=O)Nc2c1c(=O)[nH]c(=O)n2CC(C)C` (stereo unspecified), 54 µg/mL (≈ 149 µM); to `COc1ccc(NC2c3ccccc3C(=O)N2c2cccnc2)cc1` (stereo unspecified), more than 49.7 µg/mL.

Turning to `O=C(c1ccccc1)n1c(=O)c(F)cn(COCCBr)c1=O`, the solubility (kinetic) is more than 55.7 µg/mL. In the case of `CCN(CC)C(=O)Cc1c(OC)ccc2cc(Br)ccc12`, the solubility (kinetic) was 17.7 µg/mL (≈ 50.5 µM). To `c1ccc(CO/N=C(\c2ccc(C3CC3)nc2)C2CC2)cc1` belongs 1.9 µg/mL (≈ 6.5 µM); to `Cc1cccc(N=C2CSC(=O)N2)c1`, more than 30.9 µg/mL. With `O=C(NCc1ccco1)C1CCCN1C(=O)Nc1ccccc1` (stereo unspecified) the figure was 43.5 µg/mL (≈ 139 µM); with `C/C(CC(=O)Nc1ccc(Cl)cc1C(F)(F)F)=N\NC(N)=S`, more than 52.9 µg/mL. `Cc1ccc(NC(=O)c2ccc3c(c2)OCCO3)cc1C` registered a solubility (kinetic) of 25.8 µg/mL (≈ 91.1 µM). To `COc1ccc(C(=O)CC(=O)C(=O)Nc2c(C)cccc2C)cc1` belongs 15.6 µg/mL (≈ 47.9 µM); to `CN(C)C(=S)Nc1cccc(C(F)(F)F)c1`, 29.7 µg/mL (≈ 120 µM). For the compound `CC(=O)c1ccc(NC(=O)CCc2ccc(C)o2)cc1`, the kinetic solubility was determined as 36.7 µg/mL (≈ 135 µM). With `O=C(NC1CCC1)C1CCC(=O)N(Cc2cccc(F)c2)C1` (stereo unspecified) the figure was more than 45.7 µg/mL; with `Cc1cc(N2CC(C(=O)Nc3nccs3)CC2=O)ccc1C(C)C` (stereo unspecified), 1.4 µg/mL (≈ 4.08 µM); with `O=c1[nH]c(CN2CCOCC2)nc2scc(-c3ccccc3)c12`, 23.9 µg/mL (≈ 73 µM). Take `Cc1ccc(C(=O)NCCNC(=O)COc2ccc(C)c(C)c2)cn1`: the solubility (kinetic) came out at 49.2 µg/mL (≈ 144 µM). In turn, `NS(=O)(=O)c1ccc(OC(=O)CNC(=O)OCc2ccccc2)cc1` returned a solubility (kinetic) of 34.3 µg/mL (≈ 94.1 µM). `O=C(CSCc1ccc(F)cc1)NCc1ccc(F)cc1` returned a solubility (kinetic) of 44 µg/mL (≈ 143 µM). This solubility kinetic and that of the compound before are within 1.5-fold of each other. Compound `CC1CC(C)CN(C(=O)CNC(=O)c2ccc3ccccc3c2)C1` (stereo unspecified) yielded a solubility (kinetic) of more than 48.7 µg/mL. Take `O=C1C(Cc2c[nH]c3ccccc23)NC(=S)N1C1CCCCC1` (stereo unspecified): the kinetic solubility was found to be 49 µg/mL (≈ 150 µM).

Compound `Cc1nc2ccc(NC(=S)NC3CCCCC3)cc2nc1C` registered a solubility (kinetic) of more than 47.2 µg/mL. The compound `CC1CC(C)CN(C(=O)/C=C/c2ccc([N+](=O)[O-])s2)C1` (stereo unspecified) registered a kinetic solubility of 5.8 µg/mL (≈ 19.7 µM). For the compound `Cc1ccc(C(=O)NCCCc2ccccc2)c(Cl)c1`, the solubility (kinetic) was found to be 31.9 µg/mL (≈ 111 µM). To `CCOc1cc(N2CCOCC2)c(OCC)cc1NC(=O)COC(=O)C1CCCN1S(=O)(=O)c1ccccc1F` (stereo unspecified) belongs 84.7 µg/mL (≈ 146 µM). With `COc1ccc(N(C)S(=O)(=O)c2cccc(C(=O)OCC(=O)N3CC(C)CC(C)C3)c2)cc1` (stereo unspecified) the figure was 7.3 µg/mL (≈ 15.4 µM).
